According to patent publication US20250049926A1, “PHARMACEUTICAL COMPOSITIONS COMPRISING MODIFIED BETACYCLODEXTRINS” (priority 2021, published 2025):

Assay: Solubility measurement of saturated solutions by HPLC at room temperature (0 h and 24 h)
Assay type: physicochemical
Conditions: for solubility at 0 h / solubility at 24 h: thermodynamic from solid
Procedure: The vial contents are prepared starting with 2.5 mg of the compound of formula (I). The primary excipient is added followed by any further excipient and then the buffered water to a total volume of 500 μL. All components are mixed in a vortex mixer for ca. 5 minutes. If everything is dissolved an additional 2.5 mg of the compound of formula (I) is added and vortexed again for ca. 5 minutes. This is repeated until a saturated solution (suspension) is obtained.
The solubility in vial 1 is measured immediately as described below.
To measure solubility 400 μl of the suspension are taken and placed in a centrifugation device above a 0.2 μm filter. Centrifugation is performed at 14,000 rpm for 10 minutes and if necessary repeated for additional 10 minutes. The filter is removed from the vial and 100 μL is taken and diluted with 400 μL high-performance liquid chromatography (HPLC) diluent solution (see below) or diluted with 900 μL HPLC diluent solution in the event 5 mg or more of the compound of formula (I) was used. The pH of the solution is measured. A further 100 μL of the vial solution is taken and diluted with 400 μL of HPLC diluent solution or diluted with 900 μL HPLC diluent solution in the event 5 mg or more of the compound of formula (I) was used. The assay of the solution versus control stock solution is measured by HPLC and the solubility is calculated as described below. The HPLC diluent solution is 0.1% trifluoroacetic acid (TFA) in acetonitrile (ACN) and water (1:1 v/v).
All solubility tests are performed at room temperature.
The HPLC method for assessing solubility is performed as follows:
The solubility of the compound of formula (I) is calculated according to the following formula:
[formula] • Solubility=solubility of compound of formula (I) (mg/mL) • A=peak area of the compound of the sample tested • a=value of constant “a” in Linear regression equation y=ax+b • b=value of constant “b” in Linear regression equation y=ax+b • n=dilution time • Formulations for stability assessment are prepared as follows: […]

[1] = buffered water with excipients, pH 2, aqueous with cosolvent or surfactant or cyclodextrin, CBS 30 mM pH 2.0, NaCl 3 mg/mL, SBE-beta-CD 40 mg/mL, pH exp 2.2

COc1cc(N2CCNCC2)ccc1Nc1ncc2c(n1)-n1ccc(C(=O)Nc3c(C)cccc3C)c1CC2 [compound of formula (I)]
effect of additional excipient on solubility with SBE-beta-CD (Kollidon 12 PF, Kolliphor P188, soybean lecithin): very small impact on solubility | effect of additional excipient on solubility with SBE-beta-CD (PEG 400, glycerol, propylene glycol and PEG 4000): do not increase the solubility | effect of additional excipient on solubility with SBE-beta-CD (addition of Tween 80): slightly improves solubility | effect of additional excipient on solubility with SBE-beta-CD (addition of carboxymethylcellulose sodium, solution sticky at 24 hours): decreases solubility | solubility at 0 h (buffered water with excipient (saturated solution), pH 4, aqueous buffer, CBS 30 mM pH 4.0, Ethanol 20 mg/mL, pH exp 4.1): 160 µg/mL | solubility at 24 h (buffered water with excipient (saturated solution), pH 4, aqueous buffer, CBS 30 mM pH 4.0, Ethanol 20 mg/mL, pH exp 4.2): 110 µg/mL | solubility at 0 h (buffered water with excipient (saturated solution), pH 4, aqueous buffer, CBS 30 mM pH 4.0, PEG 400 20 mg/mL, pH exp 4.1): 220 µg/mL | solubility at 24 h (buffered water with excipient (saturated solution), pH 4, aqueous buffer, CBS 30 mM pH 4.0, PEG 400 20 mg/mL, pH exp 4.3): 150 µg/mL | solubility at 0 h (buffered water with excipient (saturated solution), pH 4, aqueous with cosolvent or surfactant or cyclodextrin, CBS 30 mM pH 4.0, NaCl 3 mg/mL, HP-beta-CD 40 mg/mL, pH exp 4.10): 1670 µg/mL | solubility at 24 h (buffered water with excipient (saturated solution), pH 4, aqueous with cosolvent or surfactant or cyclodextrin, CBS 30 mM pH 4.0, NaCl 3 mg/mL, HP-beta-CD 40 mg/mL, pH exp 4.28): 980 µg/mL | solubility at 0 h (buffered water with excipient (saturated solution), pH 4, aqueous with cosolvent or surfactant or cyclodextrin, CBS 30 mM pH 4.0, NaCl 3 mg/mL, SBE-beta-CD 10 mg/mL, pH exp 4.1): 890 µg/mL | solubility at 24 h (buffered water with excipient (saturated solution), pH 4, aqueous with cosolvent or surfactant or cyclodextrin, CBS 30 mM pH 4.0, NaCl 3 mg/mL, SBE-beta-CD 10 mg/mL, pH exp 4.2): 1110 µg/mL | solubility at 0 h (buffered water with excipient (saturated solution), pH 4, aqueous with cosolvent or surfactant or cyclodextrin, CBS 30 mM pH 4.0, NaCl 3 mg/mL, SBE-beta-CD 25 mg/mL, pH exp 4.1): 1840 µg/mL | solubility at 24 h (buffered water with excipient (saturated solution), pH 4, aqueous with cosolvent or surfactant or cyclodextrin, CBS 30 mM pH 4.0, NaCl 3 mg/mL, SBE-beta-CD 25 mg/mL, pH exp 4.2): 2540 µg/mL | solubility at 0 h (buffered water with excipient (saturated solution), pH 4, aqueous with cosolvent or surfactant or cyclodextrin, CBS 30 mM pH 4.0, NaCl 3 mg/mL, SBE-beta-CD 40 mg/mL, pH exp 4.0): 2480 µg/mL | solubility at 24 h (buffered water with excipient (saturated solution), pH 4, aqueous with cosolvent or surfactant or cyclodextrin, CBS 30 mM pH 4.0, NaCl 3 mg/mL, SBE-beta-CD 40 mg/mL, pH exp 4.2): 3800 µg/mL | solubility at 0 h (buffered water with excipient (saturated solution), pH 4, aqueous with cosolvent or surfactant or cyclodextrin, CBS 30 mM pH 4.0, Ethanol 50 mg/mL, pH exp 4.2): 190 µg/mL | solubility at 24 h (buffered water with excipient (saturated solution), pH 4, aqueous with cosolvent or surfactant or cyclodextrin, CBS 30 mM pH 4.0, Ethanol 50 mg/mL, pH exp 4.3): 90 µg/mL | solubility at 0 h (buffered water with excipient (saturated solution), pH 4, aqueous with cosolvent or surfactant or cyclodextrin, CBS 30 mM pH 4.0, Ethanol 100 mg/mL, pH exp 4.2): 260 µg/mL | solubility at 24 h (buffered water with excipient (saturated solution), pH 4, aqueous with cosolvent or surfactant or cyclodextrin, CBS 30 mM pH 4.0, Ethanol 100 mg/mL, pH exp 4.4): 140 µg/mL | solubility at 0 h (buffered water with excipient (saturated solution), pH 4, aqueous with cosolvent or surfactant or cyclodextrin, CBS 30 mM pH 4.0, Glycerol 50 mg/mL, pH exp 4.1): 180 µg/mL | solubility at 24 h (buffered water with excipient (saturated solution), pH 4, aqueous with cosolvent or surfactant or cyclodextrin, CBS 30 mM pH 4.0, Glycerol 50 mg/mL, pH exp 4.3): 120 µg/mL | solubility at 0 h (buffered water with excipient (saturated solution), pH 4, aqueous with cosolvent or surfactant or cyclodextrin, CBS 30 mM pH 4.0, Glycerol 100 mg/mL, pH exp 4.1): 210 µg/mL | solubility at 24 h (buffered water with excipient (saturated solution), pH 4, aqueous with cosolvent or surfactant or cyclodextrin, CBS 30 mM pH 4.0, Glycerol 100 mg/mL, pH exp 4.3): 130 µg/mL | solubility at 0 h (buffered water with excipient (saturated solution), pH 4, aqueous with cosolvent or surfactant or cyclodextrin, CBS 30 mM pH 4.0, Glycerol 500 mg/mL, pH exp 4.6): 1060 µg/mL | solubility at 24 h (buffered water with excipient (saturated solution), pH 4, aqueous with cosolvent or surfactant or cyclodextrin, CBS 30 mM pH 4.0, Glycerol 500 mg/mL, pH exp 4.8): 260 µg/mL | solubility at 0 h (buffered water with excipient (saturated solution), pH 4, aqueous with cosolvent or surfactant or cyclodextrin, CBS 30 mM pH 4.0, PEG 100 mg/mL, pH exp 4.3): 600 µg/mL | solubility at 24 h (buffered water with excipient (saturated solution), pH 4, aqueous with cosolvent or surfactant or cyclodextrin, CBS 30 mM pH 4.0, PEG 100 mg/mL, pH exp 4.5): 400 µg/mL | solubility at 0 h (buffered water with excipient (saturated solution), pH 4, aqueous with cosolvent or surfactant or cyclodextrin, CBS 30 mM pH 4.0, PEG 400 50 mg/mL, pH exp 4.1): 340 µg/mL | solubility at 24 h (buffered water with excipient (saturated solution), pH 4, aqueous with cosolvent or surfactant or cyclodextrin, CBS 30 mM pH 4.0, PEG 400 50 mg/mL, pH exp 4.4): 230 µg/mL | solubility at 0 h (buffered water with excipient (saturated solution), pH 4, aqueous with cosolvent or surfactant or cyclodextrin, CBS 30 mM pH 4.0, PEG 400 500 mg/mL, pH exp 6.3): 4100 µg/mL | solubility at 24 h (buffered water with excipient (saturated solution), pH 4, aqueous with cosolvent or surfactant or cyclodextrin, CBS 30 mM pH 4.0, PEG 400 500 mg/mL, pH exp 6.4): ≥ 4550 µg/mL | solubility at 0 h (buffered water with excipient (saturated solution), pH 4, aqueous with cosolvent or surfactant or cyclodextrin, CBS 30 mM pH 4.0, PG 50 mg/mL, pH exp 4.1): 200 µg/mL | solubility at 24 h (buffered water with excipient (saturated solution), pH 4, aqueous with cosolvent or surfactant or cyclodextrin, CBS 30 mM pH 4.0, PG 50 mg/mL, pH exp 4.3): 110 µg/mL | solubility at 0 h (buffered water with excipient (saturated solution), pH 4, aqueous with cosolvent or surfactant or cyclodextrin, CBS 30 mM pH 4.0, PG 100 mg/mL, pH exp 4.1): 280 µg/mL | solubility at 24 h (buffered water with excipient (saturated solution), pH 4, aqueous with cosolvent or surfactant or cyclodextrin, CBS 30 mM pH 4.0, PG 100 mg/mL, pH exp 4.4): 150 µg/mL | solubility at 0 h (buffered water with excipient (saturated solution), pH 4, aqueous with cosolvent or surfactant or cyclodextrin, CBS 30 mM pH 4.0, PG 500 mg/mL, pH exp 5.4): 3740 µg/mL | solubility at 24 h (buffered water with excipient (saturated solution), pH 4, aqueous with cosolvent or surfactant or cyclodextrin, CBS 30 mM pH 4.0, PG 500 mg/mL, pH exp 5.3): 2200 µg/mL | solubility at 0 h (buffered water with excipient (saturated solution), pH 5, aqueous with cosolvent or surfactant or cyclodextrin, CBS 30 mM pH 5.0, NaCl 3 mg/mL, SBE-beta-CD 40 mg/mL, pH exp 5.0): 2240 µg/mL | solubility at 24 h (buffered water with excipient (saturated solution), pH 5, aqueous with cosolvent or surfactant or cyclodextrin, CBS 30 mM pH 5.0, NaCl 3 mg/mL, SBE-beta-CD 40 mg/mL, pH exp 5.3): 3520 µg/mL | solubility at 0 h (buffered water with excipient (saturated solution), pH 5.5, aqueous with cosolvent or surfactant or cyclodextrin, CBS 30 mM pH 5.5, NaCl 3 mg/mL, SBE-beta-CD 40 mg/mL, pH exp 5.5): 1630 µg/mL | solubility at 0 h [1]: 6590 µg/mL | solubility at 24 h [1]: 5470 µg/mL | solubility at 0 h (buffered water with excipients, pH 4, aqueous with cosolvent or surfactant or cyclodextrin, ABS (acetate) 30 mM pH 4.0, NaCl 3 mg/mL, SBE-beta-CD 40 mg/mL, pH exp 4.0): 2880 µg/mL | solubility at 24 h (buffered water with excipients, pH 4, aqueous with cosolvent or surfactant or cyclodextrin, ABS (acetate) 30 mM pH 4.0, NaCl 3 mg/mL, SBE-beta-CD 40 mg/mL, pH exp 4.6): 3720 µg/mL | solubility at 0 h (buffered water with excipients, pH 4, aqueous with cosolvent or surfactant or cyclodextrin, ASBS (aspartate) 30 mM pH 4.0, NaCl 3 mg/mL, SBE-beta-CD 40 mg/mL, pH exp 4.0): 2880 µg/mL | solubility at 24 h (buffered water with excipients, pH 4, aqueous with cosolvent or surfactant or cyclodextrin, ASBS (aspartate) 30 mM pH 4.0, NaCl 3 mg/mL, SBE-beta-CD 40 mg/mL, pH exp 4.6): 3720 µg/mL | solubility at 0 h (buffered water with excipients, pH 4, aqueous with cosolvent or surfactant or cyclodextrin, CBS 30 mM pH 4.0, NaCl 3 mg/mL, SBE-beta-CD 40 mg/mL + Glycerol 1 mg/mL, pH exp 4.1): 2400 µg/mL | solubility at 24 h (buffered water with excipients, pH 4, aqueous with cosolvent or surfactant or cyclodextrin, CBS 30 mM pH 4.0, NaCl 3 mg/mL, SBE-beta-CD 40 mg/mL + Glycerol 1 mg/mL, pH exp 4.3): 3720 µg/mL | solubility at 0 h (buffered water with excipients, pH 4, aqueous with cosolvent or surfactant or cyclodextrin, CBS 30 mM pH 4.0, NaCl 3 mg/mL, SBE-beta-CD 40 mg/mL + Glycerol 5 mg/mL, pH exp 4.2): 2320 µg/mL | solubility at 24 h (buffered water with excipients, pH 4, aqueous with cosolvent or surfactant or cyclodextrin, CBS 30 mM pH 4.0, NaCl 3 mg/mL, SBE-beta-CD 40 mg/mL + Glycerol 5 mg/mL, pH exp 4.3): 3710 µg/mL | solubility at 0 h (buffered water with excipients, pH 4, aqueous with cosolvent or surfactant or cyclodextrin, CBS 30 mM pH 4.0, NaCl 3 mg/mL, SBE-beta-CD 40 mg/mL + Glycerol 50 mg/mL, pH exp 4.1): 2330 µg/mL | solubility at 24 h (buffered water with excipients, pH 4, aqueous with cosolvent or surfactant or cyclodextrin, CBS 30 mM pH 4.0, NaCl 3 mg/mL, SBE-beta-CD 40 mg/mL + Glycerol 50 mg/mL, pH exp 4.2): 3570 µg/mL | solubility at 0 h (buffered water with excipients, pH 4, aqueous with cosolvent or surfactant or cyclodextrin, CBS 30 mM pH 4.0, NaCl 3 mg/mL, SBE-beta-CD 40 mg/mL + HPMC 5 mg/mL, pH exp 4.1): 2230 µg/mL | solubility at 24 h (buffered water with excipients, pH 4, aqueous with cosolvent or surfactant or cyclodextrin, CBS 30 mM pH 4.0, NaCl 3 mg/mL, SBE-beta-CD 40 mg/mL + HPMC 5 mg/mL, pH exp 4.3): 3530 µg/mL | solubility at 0 h (buffered water with excipients, pH 4, aqueous with cosolvent or surfactant or cyclodextrin, CBS 30 mM pH 4.0, NaCl 3 mg/mL, SBE-beta-CD 40 mg/mL + Kollidon 12 P188 5 mg/mL, pH exp 4.1): 2590 µg/mL
